Assay results: patent publication US20080249023A1 (priority 2004, published 2008)
Ends that are not written are not given here.

How the values were obtained:
Bacillus subtilis = type: cell-based

Sequence | effect on Bacillus subtilis in time kill assay (Bacillus subtilis) | detergent-like (lytic) activity (sheep red blood cells)
RFARKGALRQKNV [Protein kinase C] | no effect | 
TRKKLFHIFHATIRSR [PAD-1.17, TRKKLFHIFHATIRSR] |  | did not appear to act as a detergent
